Assay results published in patent publication US7351732B2, “Cycloalkanedione derivatives, method for the production thereof and their pharmacological applications” (Schwarz Pharma S.L., priority 2002, dated 2008).
Counter-ions that a name gives are not always drawn. Like-named read-outs stand apart in the source and are kept apart here.

Assays:
5-HT1A = target: T1, 5-HT1A (Rattus norvegicus, UniProt P19327); assay: Radioligand displacement, 5-HT1A receptors, [3H]-8-OH-DPAT; format: binding; parameters: (a) 5-HT1A receptors, [^3H]-8-OH-DPAT, rat cerebral cortex; from tissue; host or cells: rat cerebral cortex; conditions: rat cerebral cortex, read-out: Ki ± E.E. 5-HT1A
T1 sequence (P19327 1-422): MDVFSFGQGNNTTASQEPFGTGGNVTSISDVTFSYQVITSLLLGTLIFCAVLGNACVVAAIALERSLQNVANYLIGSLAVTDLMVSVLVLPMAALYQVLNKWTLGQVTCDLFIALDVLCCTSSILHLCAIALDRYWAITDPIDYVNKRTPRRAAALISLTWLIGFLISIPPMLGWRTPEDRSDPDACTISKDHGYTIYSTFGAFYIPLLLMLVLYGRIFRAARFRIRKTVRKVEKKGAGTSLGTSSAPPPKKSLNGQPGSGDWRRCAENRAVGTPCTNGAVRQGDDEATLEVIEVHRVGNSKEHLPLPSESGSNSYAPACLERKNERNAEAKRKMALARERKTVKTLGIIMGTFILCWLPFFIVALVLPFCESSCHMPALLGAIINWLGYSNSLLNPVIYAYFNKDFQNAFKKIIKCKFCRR

5-HT2A receptors = target: T2, 5-HT2A receptors (Rattus norvegicus, UniProt P14842); assay: Radioligand displacement, 5-HT2A receptors, [3H]ketanserin; format: binding; conditions: rat cerebral cortex, read-out: Ki ± E.E. 5-HT2A
T2 construct: (b) 5-HT2A receptors, [^3H]ketanserin, rat cerebral cortex; from tissue; host or cells: rat cerebral cortex

5-HT7 receptors = target: T3, 5-HT7 receptors (Rattus norvegicus, UniProt P32305); assay: Radioligand displacement, 5-HT7 receptors, [3H]-5-CT; format: binding; conditions: read-out: Ki ± E.E. 5-HT7
T3 construct: (e) 5-HT7 receptors, [^3H]-5-CT, rat hypothalamus; from tissue; host or cells: rat hypothalamus

5-HT4 receptors = target: T4, 5-HT4 receptors (Rattus norvegicus, UniProt Q62758); assay: Radioligand displacement, 5-HT4 receptors, [3H]GR 113808; format: binding; conditions: [3H]GR 113808, rat striatum; read-out: Ki ± E.E. 5-HT4
T4 construct: (d) 5-HT4 receptors, [^3H]GR 113808, rat striatum; from tissue; host or cells: rat striatum

D2 receptors = target: T5, D2 receptors (Rattus norvegicus, UniProt P61169); assay: Radioligand displacement, D2 receptors, [3H]spiperone; format: binding; conditions: rat striatum, read-out: Ki ± E.E. D2
T5 construct: (g) D2 receptors, [^3H]spiperone, rat striatum; from tissue; host or cells: rat striatum

α1 receptors = assay: Radioligand displacement, α1 receptors, [3H]prazosin; format: binding; conditions: rat cerebral cortex, read-out: Ki ± E.E. α1
5-HT3 receptors = target: T6, 5-HT3 receptors (Rattus norvegicus, UniProt P35563); assay: Radioligand displacement, 5-HT3 receptors, [3H]LY 278584; format: binding; conditions: [3H]LY 278584, rat cerebral cortex; read-out: Ki ± E.E. 5-HT3
T6 construct: (c) 5-HT3 receptors, [^3H]LY 278584, rat cerebral cortex; from tissue; host or cells: rat cerebral cortex
T6 sequence (P35563 24-483): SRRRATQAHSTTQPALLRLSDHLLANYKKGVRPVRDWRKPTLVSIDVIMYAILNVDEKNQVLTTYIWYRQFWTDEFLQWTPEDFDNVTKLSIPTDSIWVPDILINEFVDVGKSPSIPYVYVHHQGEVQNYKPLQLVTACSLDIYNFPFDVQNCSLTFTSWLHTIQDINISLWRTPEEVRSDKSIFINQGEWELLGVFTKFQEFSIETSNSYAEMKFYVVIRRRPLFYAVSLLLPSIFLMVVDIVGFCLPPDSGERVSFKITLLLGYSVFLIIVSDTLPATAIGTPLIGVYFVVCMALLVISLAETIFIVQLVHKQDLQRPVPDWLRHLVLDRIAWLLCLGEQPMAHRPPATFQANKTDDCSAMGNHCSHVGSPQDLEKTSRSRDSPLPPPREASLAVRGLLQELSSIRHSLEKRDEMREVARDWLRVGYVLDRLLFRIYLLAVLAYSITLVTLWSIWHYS

T3 sequence (P32305 whole entry): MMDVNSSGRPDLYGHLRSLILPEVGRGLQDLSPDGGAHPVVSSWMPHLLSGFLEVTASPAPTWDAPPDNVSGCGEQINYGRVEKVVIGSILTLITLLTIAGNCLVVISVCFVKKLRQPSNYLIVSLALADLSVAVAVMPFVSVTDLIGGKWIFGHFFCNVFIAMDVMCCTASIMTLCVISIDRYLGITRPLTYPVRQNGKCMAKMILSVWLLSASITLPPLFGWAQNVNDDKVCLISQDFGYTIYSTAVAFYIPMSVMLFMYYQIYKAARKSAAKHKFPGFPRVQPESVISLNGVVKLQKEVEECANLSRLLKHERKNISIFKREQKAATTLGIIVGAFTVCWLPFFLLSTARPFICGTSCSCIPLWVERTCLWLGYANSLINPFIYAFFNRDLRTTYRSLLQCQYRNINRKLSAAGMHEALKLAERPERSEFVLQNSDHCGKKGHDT
T2 sequence (P14842 whole entry): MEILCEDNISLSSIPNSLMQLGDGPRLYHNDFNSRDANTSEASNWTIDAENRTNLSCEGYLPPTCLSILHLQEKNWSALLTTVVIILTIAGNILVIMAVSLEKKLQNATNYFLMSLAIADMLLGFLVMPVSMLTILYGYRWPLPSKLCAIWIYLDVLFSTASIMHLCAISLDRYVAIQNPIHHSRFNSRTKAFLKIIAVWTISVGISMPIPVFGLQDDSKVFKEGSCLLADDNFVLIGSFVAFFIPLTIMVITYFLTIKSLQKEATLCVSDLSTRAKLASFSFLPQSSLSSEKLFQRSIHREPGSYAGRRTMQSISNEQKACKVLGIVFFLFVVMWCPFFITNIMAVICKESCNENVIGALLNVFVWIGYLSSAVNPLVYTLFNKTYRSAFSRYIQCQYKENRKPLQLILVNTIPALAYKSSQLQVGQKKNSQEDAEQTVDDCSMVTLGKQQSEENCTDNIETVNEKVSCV
T4 sequence (Q62758 whole entry): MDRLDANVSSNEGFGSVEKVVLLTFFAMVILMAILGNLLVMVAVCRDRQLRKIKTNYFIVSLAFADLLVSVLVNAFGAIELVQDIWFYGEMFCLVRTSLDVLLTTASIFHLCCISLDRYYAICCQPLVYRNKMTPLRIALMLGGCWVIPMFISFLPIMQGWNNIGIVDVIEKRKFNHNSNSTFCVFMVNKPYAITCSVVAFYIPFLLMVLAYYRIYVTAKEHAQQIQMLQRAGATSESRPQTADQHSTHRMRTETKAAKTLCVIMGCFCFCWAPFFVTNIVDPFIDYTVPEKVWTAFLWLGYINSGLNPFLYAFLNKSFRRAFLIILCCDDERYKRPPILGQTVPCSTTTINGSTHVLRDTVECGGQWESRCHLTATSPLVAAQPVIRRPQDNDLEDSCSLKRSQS
T5 sequence (P61169 whole entry): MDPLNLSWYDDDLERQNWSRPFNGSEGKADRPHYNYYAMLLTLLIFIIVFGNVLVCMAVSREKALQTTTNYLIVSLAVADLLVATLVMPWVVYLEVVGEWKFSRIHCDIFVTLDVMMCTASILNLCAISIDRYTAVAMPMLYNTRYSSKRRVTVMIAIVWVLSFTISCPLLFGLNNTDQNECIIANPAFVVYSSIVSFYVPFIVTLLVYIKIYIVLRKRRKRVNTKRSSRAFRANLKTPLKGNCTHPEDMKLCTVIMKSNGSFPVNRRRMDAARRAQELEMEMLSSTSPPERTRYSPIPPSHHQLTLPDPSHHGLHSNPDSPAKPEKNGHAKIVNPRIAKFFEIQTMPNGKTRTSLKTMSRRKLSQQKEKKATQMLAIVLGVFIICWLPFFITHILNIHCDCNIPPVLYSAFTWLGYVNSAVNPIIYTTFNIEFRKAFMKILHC

Row | SMILES | melting point | Ki (5-HT1A) | Ki (α1 receptors) | further results
1 | O=C1C2CCCN2C(=O)N1CCCCNCc1cccc2ccccc12 (stereo not shown) (as salt: hydrochloride) [Compound 7, 2-[4-[(Naphth-1-yl)methylamine]butyl]-1,3-dioxoperhydropyrrolo[1,2-c]imidazol] | 150 to 153 °C |  |  | 
2 | O=C1C2CCCN2C(=O)N1CCCCNCc1ccc2ccccc2c1 (stereo not shown) (as salt: hydrochloride) [Compound 8, 2-[4-[(Naphth-2-yl)methylamine]butyl]-1,3-dioxoperhydropyrrolo[1,2-c]imidazol] | 125 to 127 °C |  |  | 
3 | O=C1C2CCCN2C(=O)N1CCCCNCCc1ccc2ccccc2c1 (stereo not shown) (as salt: hydrochloride) [Compound 11, 2-[4-[2-(Naphth-2-yl)ethylamine]butyl]-1,3-dioxoperhydropyrrolo[1,2-c]imidazol] | 130 to 132 °C |  |  | 
4 | O=C1CSC(=O)N1CCCCNCCOc1ccccc1 (as salt: hydrochloride) [Compound 13, 3-[4-[2-(Phenoxy)ethylamine]butyl]-2,4-dioxothiazolidin] | 173 to 174 °C |  |  | 
5 | O=C1C2CCCN2C(=O)N1CCCCNCc1nc2ccccc2[nH]1 (stereo not shown) (as salt: hydrochloride) [Compound 16, 2-[4-[(Benzimidazol-2-yl)methylamine]butyl]-1,3-dioxoperhydropyrrolo[1,2-c]imidazol] | 208 to 210 °C |  |  | 
6 | O=C1C2SCCN2C(=O)N1CCCCNCC1CCc2ccccc2O1 (racemic) (as salt: hydrochloride) [Compound 2, (±)-2-[4-[(Chroman-2-yl)methylamine]butyl]-1,3-dioxoperhydroimidazo[1,5-b]thiazol] | 149 to 151 °C |  |  | 
7 | O=C1C2CSCN2C(=O)N1CCCCNCC1CCc2ccccc2O1 (racemic) (as salt: hydrochloride) [Compound 3, (±)-2-[4-[(Chroman-2-yl)methylamine]butyl]-1,3-dioxoperhydroimidazo[1,5-c]-thiazol] | 142 to 144 °C |  |  | 
8 | O=C1CSC(=O)N1CCCCCNCC1CCc2ccccc2O1 (racemic) [Compound 5, (±)-3-[5-[(Chroman-2-yl)methylamine]pentyl]-2,4-dioxothiazolidin] |  | 5.5 ± 0.4 nM |  | 
9 | O=C1CSC(=O)N1CCCCCCNCC1CCc2ccccc2O1 (racemic) [Compound 6, (±)-3-[6-[(Chroman-2-yl)methylamine]hexyl]-2,4-dioxothiazolidin] |  | 1.3 ± 0.2 nM |  | 
10 | CN(C)CCCSc1ccccc1NC(=O)/C=C/c1ccccc1 [Cinanserine, reference compound] |  |  |  | Ki (5-HT2A receptors): 2.6 ± 0.4 nM
11 | NCCc1c[nH]c2ccc(C(N)=O)cc12 [Compound 5-CT, 5-CT, reference compound] |  |  |  | Ki (5-HT7 receptors; [3H]-5-CT, rat hypothalamus): 1.8 ± 0.6 nM
12 | CCCN(CCC)C1CCc2cccc(O)c2C1 (stereo not shown) [Compound 8-OH-DPAT, 8-OH-DPAT, reference compound] |  |  |  | Ki (5-HT7 receptors): 83.8 nM
13 | O=C1CSC(=O)N1CCCCNCCc1cccc2ccccc12 [Compound 10, 3-[4-[2-(Naphth-1-yl)ethylamine]butyl]-2,4-dioxothiazolidin] |  | 15 ± 1 nM | > 1000 nM | Ki (5-HT4 receptors): > 1000 nM; Ki (D2 receptors): > 10000 nM; Ki (5-HT2A receptors): > 1000 nM; Ki (5-HT7 receptors; [3H]-5-CT, rat hypothalamus): > 10000 nM; Ki (5-HT3 receptors): > 1000 nM
14 | O=C1CSC(=O)N1CCCCNCCOc1ccccc1 [Compound 13, 3-[4-[2-(Phenoxy)ethylamine]butyl]-2,4-dioxothiazolidin] |  | 9.8 ± 0.7 nM | 26.9 ± 4.5 nM | Ki (5-HT4 receptors): > 1000 nM; Ki (D2 receptors): > 10000 nM; Ki (5-HT2A receptors): > 10000 nM; Ki (5-HT7 receptors; [3H]-5-CT, rat hypothalamus): 55 ± 0.3 nM; Ki (5-HT3 receptors): > 10000 nM
15 | COc1ccccc1CNCCCCN1C(=O)C2CCCN2C1=O (stereo not shown) [Compound 17, 2-[4-[(o-Methoxyphenyl)methylamine]butyl]-1,3-dioxoperhydropyrrolo[1,2-c]imidazol] |  | > 10000 nM | > 10000 nM | 
16 | COc1ccccc1CCNCCCCN1C(=O)C2CCCN2C1=O (stereo not shown) [Compound 18, 2-[4-[2-(o-Methoxyphenyl)ethylamine]butyl]-1,3-dioxoperhydropyrrolo[1,2-c]imidazol] |  | 868 ± 23.1 nM | > 1000 nM | Ki (5-HT4 receptors): > 10000 nM; Ki (D2 receptors): > 10000 nM; Ki (5-HT2A receptors): > 10000 nM
17 | Cc1ccc(N(CC2=NCCN2)c2cccc(O)c2)cc1 [Phentolamine, reference compound] |  |  | 6.1 ± 0.1 nM | 
18 | COc1cc(COc2cc(N)c(Cl)cc2C(=O)CCC2CCN(CCNS(C)(=O)=O)CC2)cc(OC)c1 [RS-39604, reference compound] |  |  |  | Ki (5-HT4 receptors): 3.9 ± 0.2 nM

More lines, main results first:

Row | melting point | Ki (5-HT1A) | Ki (α1 receptors) | SMILES | further results
19 | 95 to 97 °C |  |  | O=C1C2CCCN2C(=O)N1CCCCNCCc1cccc2ccccc12 (stereo not shown) (as salt: hydrochloride) [Compound 9, 2-[4-[2-(Naphth-1-yl)ethylamine]butyl]-1,3-dioxoperhydropyrrolo[1,2-c]imidazol] | 
20 | 128 to 129 °C |  |  | O=C1CSC(=O)N1CCCCNCCc1cccc2ccccc12 (as salt: hydrochloride) [Compound 10, 3-[4-[2-(Naphth-1-yl)ethylamine]butyl]-2,4-dioxothiazolidin] | 
21 | 163 to 164 °C |  |  | O=C1C2CCCN2C(=O)N1CCCCNCCOc1cccc2ccccc12 (stereo not shown) (as salt: hydrochloride) [Compound 14, 2-[4-[2-(Naphth-1-oxi)ethylamine]butyl]-1,3-dioxoperhydropyrrolo[1,2-c]imidazol] | 
22 | 149 to 151 °C |  |  | O=C1CSC(=O)N1CCCCNCCOc1cccc2ccccc12 (as salt: hydrochloride) [Compound 15, 3-[4-[2-(Naphth-1-oxi)ethylamine]butyl]-2,4-dioxothiazolidin] | 
23 | 160 to 162 °C |  |  | COc1ccccc1CCNCCCCN1C(=O)C2CCCN2C1=O (stereo not shown) (as salt: hydrochloride) [Compound 18, 2-[4-[2-(o-Methoxyphenyl)ethylamine]butyl]-1,3-dioxoperhydropyrrolo[1,2-c]imidazol] | 
24 | 175 to 177 °C |  |  | O=C1CSC(=O)N1CCCCCCNCC1CCc2ccccc2O1 (racemic) (as salt: hydrochloride) [Compound 6, (±)-3-[6-[(Chroman-2-yl)methylamine]hexyl]-2,4-dioxothiazolidin] | 
25 |  |  | 49.6 ± 2.9 nM | O=C1C2CCCN2C(=O)N1CCCCNCc1cccc2ccccc12 (stereo not shown) [Compound 7, 2-[4-[(Naphth-1-yl)methylamine]butyl]-1,3-dioxoperhydropyrrolo[1,2-c]imidazol] | Ki (5-HT4 receptors): > 10000 nM; Ki (D2 receptors): > 10000 nM; Ki (5-HT2A receptors): > 1000 nM; Ki (5-HT7 receptors; [3H]-5-CT, rat hypothalamus): > 10000 nM
26 |  | 51.01 ± 0.47 nM |  | O=C1C2CCCN2C(=O)N1CCCCNCc1ccc2ccccc2c1 (stereo not shown) [Compound 8, 2-[4-[(Naphth-2-yl)methylamine]butyl]-1,3-dioxoperhydropyrrolo[1,2-c]imidazol] | 
27 |  | 27.9 ± 3.1 nM | > 1000 nM | O=C1C2CCCN2C(=O)N1CCCCNCCc1cccc2ccccc12 (stereo not shown) [Compound 9, 2-[4-[2-(Naphth-1-yl)ethylamine]butyl]-1,3-dioxoperhydropyrrolo[1,2-c]imidazol] | Ki (5-HT4 receptors): > 10000 nM; Ki (D2 receptors): > 10000 nM; Ki (5-HT2A receptors): > 10000 nM
28 |  | 43.2 ± 4.5 nM | 99 ± 14 nM | O=C1C2CCCN2C(=O)N1CCCCNCCc1ccc2ccccc2c1 (stereo not shown) [Compound 11, 2-[4-[2-(Naphth-2-yl)ethylamine]butyl]-1,3-dioxoperhydropyrrolo[1,2-c]imidazol] | Ki (5-HT4 receptors): 594 ± 43.7 nM; Ki (5-HT2A receptors): 157.3 ± 0.65 nM; Ki (5-HT7 receptors; [3H]-5-CT, rat hypothalamus): 74 ± 7.3 nM; Ki (5-HT3 receptors): > 10000 nM
29 |  | 4.5 ± 0.2 nM | 54.7 ± 1.8 nM | O=C1CSC(=O)N1CCCCNCCOc1cccc2ccccc12 [Compound 15, 3-[4-[2-(Naphth-1-oxi)ethylamine]butyl]-2,4-dioxothiazolidin] | Ki (D2 receptors): > 1000 nM; Ki (5-HT2A receptors): 38.5 ± 7.7 nM; Ki (5-HT7 receptors; [3H]-5-CT, rat hypothalamus): 19.9 ± 0.8 nM; Ki (5-HT3 receptors): > 10000 nM
